Experimental data from the supplement of paper PMC10307832.

Experiments:
Assay in all cases: relative viability (nuclei count vs DMSO), 5 days (fraction); higher = more cells survive
[1] = compound: COc1cc2ncn(-c3cc(OCc4ccccc4C(F)(F)F)c(C(N)=O)s3)c2cc1OC + CC(=O)Nc1cccc(-n2c(=O)n(C3CC3)c(=O)c3c(Nc4ccc(I)cc4F)n(C)c(=O)c(C)c32)c1 [Trametinib] (partner 0.02 µM)
How it was run: (§1)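 Values are medians from duplicate plates. Each reflects relative viability, defined as the nuclei count of treated wells over that of vehicle wells. Lung cancer cell lines in 1536-well plates were pin-tool dosed one day after seeding with one drug alone or with a fixed anchor-drug dose plus five library-drug doses (not always all listed) in √10 steps, then fixed, stained and imaged at 4× after 5 days.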

[2] = compound: COc1cc2ncn(-c3cc(OCc4ccccc4C(F)(F)F)c(C(N)=O)s3)c2cc1OC + COc1cccc2cc(-c3nc([C@H]4CC[C@H](C(=O)O)CC4)n4ncnc(N)c34)[nH]c12 [OSI-027] (partner 0.5 µM)
How it was run: as §1

[3] = compound: COc1cc2ncn(-c3cc(OCc4ccccc4C(F)(F)F)c(C(N)=O)s3)c2cc1OC + CS(=O)(=O)CCNCc1ccc(-c2ccc3ncnc(Nc4ccc(OCc5cccc(F)c5)c(Cl)c4)c3c2)o1 [Lapatinib] (partner 2 µM)
How it was run: as §1

[4] = compound: COc1cc2ncn(-c3cc(OCc4ccccc4C(F)(F)F)c(C(N)=O)s3)c2cc1OC + C[C@]1(O)C[C@@H](c2nc(-c3ccc4ccc(-c5ccccc5)nc4c3)c3c(N)nccn32)C1 [Linsitinib] (partner 1 µM)
How it was run: as §1

| Cell Line | relative viability ([1]; first compound 0.05 µM) | relative viability ([1]; first compound 0.1581 µM) | relative viability ([1]; first compound 0.5 µM) | relative viability ([1]; first compound 1.581 µM) | relative viability ([1]; first compound 5 µM) | relative viability ([2]; first compound 0.05 µM) | relative viability ([2]; first compound 0.1581 µM) | relative viability ([2]; first compound 0.5 µM) | relative viability ([2]; first compound 1.581 µM) | relative viability ([2]; first compound 5 µM) | relative viability ([3]; first compound 0.05 µM) | relative viability ([3]; first compound 0.1581 µM) | relative viability ([3]; first compound 0.5 µM) | relative viability ([3]; first compound 1.581 µM) | relative viability ([3]; first compound 5 µM) | relative viability ([4]; first compound 0.05 µM) | relative viability ([4]; first compound 0.1581 µM) | relative viability ([4]; first compound 0.5 µM) | relative viability ([4]; first compound 1.581 µM) | relative viability ([4]; first compound 5 µM) |
| --- | --- | --- | --- | --- | --- | --- | --- | --- | --- | --- | --- | --- | --- | --- | --- | --- | --- | --- | --- | --- |
| LC-2-ad | 1.02 | 0.821 | 0.662 | 0.211 | 0.188 | 0.813 | 0.754 | 0.393 | 0.289 | 0.254 | 0.811 | 0.592 | 0.511 | 0.119 | 0.0933 | 0.722 | 0.685 | 0.119 | 0.106 | 0.0972 |
| LCLC-97TM1 | 0.178 | 0.149 | 0.148 | 0.0713 | 0.0862 | 0.529 | 0.538 | 0.301 | 0.195 | 0.175 | 0.802 | 0.893 | 0.343 | 0.175 | 0.161 | 0.203 | 0.182 | 0.122 | 0.141 | 0.115 |
| LK-2 | 0.719 | 0.457 | 0.283 | 0.151 | 0.145 | 0.197 | 0.221 | 0.17 | 0.173 | 0.138 | 1.01 | 0.841 | 0.437 | 0.217 | 0.222 | 0.591 | 0.413 | 0.284 | 0.182 | 0.165 |
| LOU-NH91 | 0.783 | 0.776 | 0.719 | 0.52 | 0.295 | 0.677 | 0.772 | 0.656 | 0.525 | 0.682 | 0.768 | 0.793 | 0.676 | 0.444 | 0.499 | 0.94 | 1.05 | 0.824 | 0.526 | 0.595 |
| LU99A | 0.589 | 0.236 | 0.343 | 0.171 | 0.128 | 0.304 | 0.32 | 0.231 | 0.176 | 0.178 | 1 | 0.948 | 0.577 | 0.226 | 0.183 | 0.502 | 0.522 | 0.224 | 0.212 | 0.161 |
| LXF-289 | 0.685 | 0.551 | 0.491 | 0.142 | 0.0968 | 0.815 | 0.755 | 0.214 | 0.0606 | 0.0476 | 0.912 | 0.709 | 0.647 | 0.147 | 0.0707 | 0.884 | 0.762 | 0.158 | 0.0992 | 0.0585 |
| NCI-H23 | 0.29 | 0.271 | 0.198 | 0.123 | 0.0957 | 0.638 | 0.561 | 0.316 | 0.117 | 0.0957 | 1.22 | 0.789 | 0.451 | 0.159 | 0.141 | 0.655 | 0.371 | 0.274 | 0.113 | 0.131 |
| NCI-H322M | 0.503 | 0.486 | 0.47 | 0.463 | 0.384 | 0.512 | 0.541 | 0.462 | 0.319 | 0.239 | 0.572 | 0.578 | 0.548 | 0.302 | 0.257 | 0.893 | 0.856 | 0.748 | 0.401 | 0.408 |
| NCI-H358 | 0.146 | 0.114 | 0.104 | 0.116 | 0.096 | 0.744 | 0.726 | 0.549 | 0.0578 | 0.067 | 0.553 | 0.435 | 0.371 | 0.175 | 0.145 | 0.693 | 0.678 | 0.349 | 0.155 | 0.141 |
| NCI-H460 | 0.247 | 0.101 | 0.102 | 0.0172 | 0.0148 | 0.625 | 0.616 | 0.227 | 0.0107 | 0.0118 | 1.03 | 0.592 | 0.486 | 0.0094 | 0.0099 | 0.836 | 0.832 | 0.0599 | 0.0112 | 0.0063 |
| NCI-H520 | 0.644 | 0.561 | 0.236 | 0.171 | 0.166 | 0.28 | 0.29 | 0.27 | 0.163 | 0.175 | 1.01 | 0.814 | 0.387 | 0.172 | 0.149 | 0.964 | 0.957 | 0.477 | 0.166 | 0.154 |
| NCI-H596 | 0.469 | 0.695 | 0.802 | 0.439 | 0.297 | 0.758 | 0.759 | 0.429 | 0.222 | 0.253 | 1.1 | 1.22 | 0.911 | 0.586 | 0.33 | 1.08 | 1.1 | 0.87 | 0.655 | 0.351 |
| NCI-H647 | 0.544 | 0.388 | 0.279 | 0.0866 | 0.079 | 0.687 | 0.561 | 0.536 | 0.0932 | 0.0815 | 0.97 | 0.935 | 0.448 | 0.0772 | 0.0798 | 1.07 | 1.09 | 0.267 | 0.101 | 0.126 |
| NCI-H650 | 0.954 | 0.722 | 0.6 | 0.204 | 0.489 | 0.503 | 0.63 | 0.383 | 0.213 | 0.189 | 0.903 | 1.2 | 0.531 | 0.171 | 0.247 | 0.896 | 1.17 | 0.505 | 0.118 | 0.171 |
| NCI-H661 | 0.692 | 0.491 | 0.299 | 0.244 | 0.219 | 0.755 | 0.581 | 0.53 | 0.191 | 0.174 | 0.431 | 0.517 | 0.467 | 0.18 | 0.251 | 0.513 | 0.526 | 0.39 | 0.247 | 0.174 |
| NCI-H727 | 0.431 | 0.377 | 0.338 | 0.385 | 0.396 | 0.684 | 0.692 | 0.457 | 0.516 | 0.407 | 0.803 | 0.694 | 0.541 | 0.338 | 0.296 | 0.321 | 0.283 | 0.166 | 0.186 | 0.305 |
